Reference: patent publication US20230013336A1, “SYNECHOCOCCUS ELONGATUS MUTANTS, VARIANTS AND USES THEREOF TO PRODUCE AN ESSENTIAL AMINO ACID” (Purdue Research Foundation, priority 2021, published 2023)

System: PCC 11801
Assay: MMS mutagenesis kill rate
Format: cell-based, Synechococcus elongatus sp. PCC 11801
Conditions: 1% (v/v) MMS for 90 seconds, quenched with 5% sodium thiosulfate
Description: Random mutagenesis was performed by modifying a previously described protocol (Deshpande et al. (2020), infra) with methylmethanesulfonate (MMS) and ultra-violet (UV) irradiation as the mutagens. Cells were prepared for random mutagenesis by pelleting exponentially growing cultures (OD ˜0.6-1) of PCC 11801 and resuspending in 1 mL of fresh BG-11M media.
For MMS mutagenesis, 1% (v/v) MMS (Sigma-Aldrich, St. Louis, Mo.) was added for 90 seconds, and the reaction was quenched by the addition of 5% (w/w) sodium thiosulfate solution to yield a ˜85-95% kill rate. For UV mutagenesis, the culture was subjected to 90 seconds of UV light to yield a kill rate of ˜90%.
The mutagenized cultures were incubated at 38° C. overnight in the dark before selection. To select for overproducers, the phenylalanine (Phe) analog 3-(2-thienyl)-dl-alanine (Sigma-Aldrich, St. Louis, Mo.) was applied to BG-11M agar plates in concentrations ranging from 0.5-2 mg/ml. The wild-type and mutagenized cultures were diluted and spread on BG-11M (to test kill rate) and BG-11M analog-containing plates, and were incubated at 38° C. until colonies appeared. Colonies (i.e. variant Synechococcus elongatus sp. strains) that successfully grew on analog selection plates were picked (e.g., selected) and re-streaked on selective plates for at least three rounds to enable complete segregation of mutations.

COS(C)(=O)=O [MMS, methylmethanesulfonate]
kill rate: 85-95%
